In ChEMBL document CHEMBL5728513, “Substituted isoindolin-1-ones and 2,3-dihydro-1h-pyrrolo[3,4-c]pyridin-1-ones as hpk1 antagonists” (2021):

The compounds below were run against Mitogen-activated protein kinase kinase kinase kinase 1 (Homo sapiens, UniProt Q92918) (assay: Biochemical Enzyme Assay: HPK1 biochemical enzyme assay: HPK1 enzyme inhibition was measured using a microfluidic mobility shift assay. […] Test compounds were titrated in ten point curves (top final assay concentration […]), and preincubated with enzyme/substrate mix for 30 min prior to initiation of the reaction by addition of ATP (1 mM final concentration) and substrate (1 Î¼M final concentration; Carna Biosciences) diluted in assay buffer supplemented by MgCl2 (final assay concentration of 5 mM). Following 60 min incubation at RT, the reaction was terminated by addition of 60 µl/well termination buffer (Carna Biosciences) and signal determination using a Caliper EZ Reader (Perkin Elmer, UK).).
Mitogen-activated protein kinase kinase kinase kinase 1, sequence (Q92918 whole entry): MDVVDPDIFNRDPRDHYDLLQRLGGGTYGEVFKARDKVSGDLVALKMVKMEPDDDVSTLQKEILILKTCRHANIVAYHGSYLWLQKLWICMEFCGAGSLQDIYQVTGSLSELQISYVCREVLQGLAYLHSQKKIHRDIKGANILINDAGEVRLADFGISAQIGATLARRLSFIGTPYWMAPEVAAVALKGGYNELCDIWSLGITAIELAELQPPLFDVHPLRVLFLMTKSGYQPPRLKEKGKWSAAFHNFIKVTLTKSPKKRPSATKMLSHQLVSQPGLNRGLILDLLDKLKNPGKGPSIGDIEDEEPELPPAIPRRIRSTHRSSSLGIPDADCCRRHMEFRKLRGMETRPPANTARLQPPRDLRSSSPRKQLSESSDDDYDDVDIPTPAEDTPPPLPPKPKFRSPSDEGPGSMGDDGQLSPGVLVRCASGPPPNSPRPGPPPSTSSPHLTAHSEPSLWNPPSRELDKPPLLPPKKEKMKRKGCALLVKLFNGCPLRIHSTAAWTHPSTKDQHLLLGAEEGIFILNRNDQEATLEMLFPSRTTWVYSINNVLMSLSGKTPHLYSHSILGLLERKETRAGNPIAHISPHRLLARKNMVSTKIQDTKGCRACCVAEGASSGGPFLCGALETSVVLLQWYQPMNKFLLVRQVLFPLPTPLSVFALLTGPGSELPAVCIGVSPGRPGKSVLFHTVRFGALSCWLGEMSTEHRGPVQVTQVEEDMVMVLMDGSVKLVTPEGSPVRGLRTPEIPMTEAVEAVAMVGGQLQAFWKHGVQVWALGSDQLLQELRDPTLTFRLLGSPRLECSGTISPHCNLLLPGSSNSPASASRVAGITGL
`CCN(C)Cc1nc(Nc2ccc(-c3cnc4cc(F)ccn34)c3c2C(=O)NC3)ccc1[C@@H]1CCOC1` gave an IC50 of under 100 nM. `CO[C@H]1CCC(c2ccc(Nc3ccc(-c4cnc5cc(F)ccn45)c4c3C(=O)NC4)nc2CN(C)C)C1` (stereo partly drawn) was tested, and the IC50 was under 100 nM. For `CN(C)Cc1cc(Nc2ccc(-c3cnc4cc(F)ccn34)c3c2C(=O)NC3)ncc1C1(O)CCOCC1`, the IC50 was “in the range around 550 nM”.
